# Measurements published in publication PMC3929961 (Molecular cell, 2013).
# Assays:
# Format in all cases: binding
# EcDnaB [1] = target: T1, EcDnaB (Escherichia coli, UniProt P0ACB0); experiment: negative-stain EM 2D class averages and SAXS; settings: 0-1 mM AMPPNP in SAXS
# GstDnaB = target: T2, GstDnaB (Geobacillus stearothermophilus, UniProt Q9X4C9); experiment: negative-stain EM 2D class averages
# T2 sequence (Q9X4C9 1-454): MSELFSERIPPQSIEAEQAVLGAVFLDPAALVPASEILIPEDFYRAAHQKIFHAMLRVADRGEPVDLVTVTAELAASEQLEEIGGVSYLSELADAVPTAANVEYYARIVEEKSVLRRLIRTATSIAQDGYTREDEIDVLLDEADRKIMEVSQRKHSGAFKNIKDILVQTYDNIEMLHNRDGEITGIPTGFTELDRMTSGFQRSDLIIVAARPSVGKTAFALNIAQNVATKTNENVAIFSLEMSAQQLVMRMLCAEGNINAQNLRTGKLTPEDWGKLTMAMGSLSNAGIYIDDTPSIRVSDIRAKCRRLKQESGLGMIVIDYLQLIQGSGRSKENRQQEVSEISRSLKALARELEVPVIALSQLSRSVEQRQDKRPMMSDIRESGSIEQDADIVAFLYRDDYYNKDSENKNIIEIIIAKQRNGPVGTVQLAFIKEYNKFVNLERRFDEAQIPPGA
# EcDnaB [2] = target: T1, EcDnaB; experiment: negative-stain EM 2D class averages
# T1 sequence (P0ACB0 2-471): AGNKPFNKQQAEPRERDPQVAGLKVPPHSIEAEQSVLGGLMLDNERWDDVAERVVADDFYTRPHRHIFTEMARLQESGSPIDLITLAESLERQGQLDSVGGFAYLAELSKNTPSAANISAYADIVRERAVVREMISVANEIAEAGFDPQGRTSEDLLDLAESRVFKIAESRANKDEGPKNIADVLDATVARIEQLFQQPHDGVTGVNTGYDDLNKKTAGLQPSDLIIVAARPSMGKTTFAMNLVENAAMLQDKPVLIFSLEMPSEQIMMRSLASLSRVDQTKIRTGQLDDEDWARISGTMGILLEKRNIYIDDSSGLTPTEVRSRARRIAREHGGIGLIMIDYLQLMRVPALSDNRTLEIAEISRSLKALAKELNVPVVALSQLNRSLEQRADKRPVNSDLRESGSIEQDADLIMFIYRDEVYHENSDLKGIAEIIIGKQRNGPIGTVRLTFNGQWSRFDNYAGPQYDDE
structure (smiles),measurement,setting,value
Nc1ncnc2c1ncn2[C@@H]1O[C@H](COP(=O)(O)OP(=O)(O)NP(=O)(O)O)[C@@H](O)[C@H]1O [AMPPNP],negative-stain EM 2D class averages and SAXS (collar constriction),EcDnaB [1],two kinds of 2D class averages were observed for EcDnaB in the presence of ATPγS
Nc1ncnc2c1ncn2[C@@H]1O[C@H](COP(=O)(O)OP(=O)(O)OP(=O)(O)O)[C@@H](O)[C@H]1O [ATP],negative-stain EM 2D class averages (collar constriction),GstDnaB,2D EM analysis again revealed evidence for a constricted species in the presence of ATP
Nc1ncnc2c1ncn2[C@@H]1O[C@H](COP(=O)(O)OP(=O)(O)OP(O)(O)=S)[C@@H](O)[C@H]1O [ATPγS],negative-stain EM 2D class averages (collar constriction),EcDnaB [2],two kinds of 2D class averages were observed for EcDnaB in the presence of ATPγS
